Measured values published in patent publication US20250171432A1, “COMPOUNDS AND METHODS OF USE” (Tango Therapeutics, Inc., priority 2022, published 2025).

What was measured:
Type in all cases: cell-based
[1] = tested on: SDMA (PRMT5 activity) in HAP1 MTAP-deleted cell line; experiment: SDMA in-cell western assay, HAP1 MTAP-deleted; details: for IC50 / IC90: SDMA in-cell western, HAP1 MTAP-deleted cells, 24 hours compound incubation; for Hap1 MTAP intact/deleted ratio: ratio of SDMA IC50 in HAP1 MTAP-intact to HAP1 MTAP-deleted cell line
[2] = tested on: SDMA (PRMT5 activity) in HAP1 MTAP-intact cell line; experiment: SDMA in-cell western assay, HAP1 MTAP-intact; details: SDMA in-cell western, HAP1 MTAP-intact cells, 24 hours compound incubation
[3] = tested on: HAP1 MTAP-deleted cell line; experiment: Viability assay (CellTiter-Glo), HAP1 MTAP-deleted; details: HAP1 MTAP-deleted cells, 7 days
Method in brief: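 HAP1 MTAP-deleted and MTAP-intact cells seeded, then dosed next day (n=3, 0.2% DMSO) and grown 7 days. Viability by CellTiter-Glo luminescence, expressed as % of DMSO control per cell line.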

| Compound | IC50 ([1]; Homo sapiens) | IC90 ([1]; Homo sapiens) | Hap1 MTAP intact/deleted ratio [1] | IC50 ([2]; Homo sapiens, HAP1, 24 h) | IC50 ([3]; Homo sapiens, 168 h) | IC50 [1] | IC90 [1] | IC50 [2] | IC50 [3] | IC50 ([2]; Homo sapiens) |
| --- | --- | --- | --- | --- | --- | --- | --- | --- | --- | --- |
| COc1ncc(NC(=O)C(=O)N2C[C@@H](C)CC[C@@H]2c2ccc3sc([C@@H](C)N(C)C)nc3c2)cc1C(N)=O [Compound 25, 2-methoxy-5-[[2-oxo-2-[(2R,5S)-5-methyl-2-[2-[(1R)-1-(dimethylamino)ethyl]-1,3-benzothiazol-5-yl]-1-piperidyl]acetyl]amino]pyridine-3-carboxamide] | 5 to 50 nM | 75 to 125 nM | A (“A” indicates an IC50 ratio greater than or equal to 30 fold) | > 50 nM | < 100 nM | – | – | – | – | – |
| COc1ncc(NC(=O)C(=O)N2C[C@@H](C)CC[C@@H]2c2cccc(OC[C@@H]3CCCN3C)c2)cc1C(N)=O [Compound 26, 2-methoxy-5-(2-((2R,5S)-5-methyl-2-(3-(((S)-1-methylpyrrolidin-2-yl)methoxy)phenyl)piperidin-1-yl)-2-oxoacetamido)nicotinamide] | 5 to 50 nM | > 125 nM | A (“A” indicates an IC50 ratio greater than or equal to 30 fold) | > 50 nM | 100 to 1000 nM | – | – | – | – | – |
| CCc1cc(NC(=O)C(=O)N2C[C@@H](C)CC[C@@H]2c2ccc3sc([C@H]4C[C@@H](N(C)C)C4)nc3c2)cnc1N [Compound 40, N-(6-amino-5-ethyl-3-pyridyl)-2-oxo-2-[(2R,5S)-2-[2-[3-(dimethylamino)cyclobutyl]-1,3-benzothiazol-5-yl]-5-methyl-1-piperidyl]acetamide] | < 5 nM | < 75 nM | A (“A” indicates an IC50 ratio greater than or equal to 30 fold) | > 50 nM | < 100 nM | – | – | – | – | – |
| CCc1cc(NC(=O)C(=O)N2C[C@@H](C)CC[C@@H]2c2ccc3sc(C(C)CN4CCCC4)nc3c2)cnc1N (single isomer, unassigned) [Compound 2] | < 5 nM | < 75 nM | B (“B” indicates an IC50 ratio greater than or equal to 15 fold but lower than 30 fold) | 5 to 50 nM | < 100 nM | – | – | – | – | – |
| COc1ncc(NC(=O)C(=O)N2C[C@@H](C)CC[C@@H]2c2ccc3cc(C#N)c(C4CCN(C)CC4)nc3c2)cc1C(N)=O [Compound 113, 5-(2-((2R,5S)-2-(3-cyano-2-(1-methylpiperidin-4-yl)quinolin-7-yl)-5-methylpiperidin-1-yl)-2-oxoacetamido)-2-methoxynicotinamide] | < 5 nM | < 75 nM | A (“A” indicates an IC50 ratio greater than or equal to 30 fold) | > 50 nM | < 100 nM | – | – | – | – | – |
| C[C@H]1CC[C@H](c2ccc3sc(C4CCN(C)C(C)(C)C4)nc3c2)N(C(=O)C(=O)Nc2cnc(N)c(C3COC3)c2)C1 (single isomer, unassigned) [Compound 1] | – | – | C (“C” indicates an IC50 ratio of less than 15 fold) | – | – | < 5 nM | < 75 nM | 5 to 50 nM | < 100 nM | – |
| COc1ncc(NC(=O)C(=O)N2C[C@@H](C)CC[C@@H]2c2ccc3sc([C@@H](C)CN(C)C)nc3c2)cc1C(N)=O [Compound 14, 2-methoxy-5-[[2-oxo-2-[(2R,5S)-5-methyl-2-[2-[(^1R)-2-(dimethylamino)-1-methyl-ethyl]-1,3-benzothiazol-5-yl]-1-piperidyl]acetyl]amino]pyridine-3-carboxamide] | < 5 nM | < 75 nM | B (“B” indicates an IC50 ratio greater than or equal to 15 fold but lower than 30 fold) | 5 to 50 nM | < 100 nM | – | – | – | – | – |
| COc1ncc(NC(=O)C(=O)N2C[C@@H](C)CC[C@@H]2c2ccc3sc(C45CC(N(C)C)(C4)C5)nc3c2)cc1C(N)=O [Compound 86] | 5 to 50 nM | > 125 nM | A (“A” indicates an IC50 ratio greater than or equal to 30 fold) | > 50 nM | < 100 nM | – | – | – | – | – |
| CCc1cc(NC(=O)C(=O)N2C[C@@H](C)CC[C@@H]2c2ccc3cn(C4CCN(C)C(C)(C)C4)nc3c2)cnc1N (stereo partly drawn) [Compound 109, N-(6-amino-5-ethyl-3-pyridyl)-2-oxo-2-[(2R,5S)-5-methyl-2-[2-(1,2,2-trimethyl-4-piperidyl)indazol-6-yl]-1-piperidyl]acetamide] | < 5 nM | < 75 nM | B (“B” indicates an IC50 ratio greater than or equal to 15 fold but lower than 30 fold) | 5 to 50 nM | < 100 nM | – | – | – | – | – |
| CCc1cc(NC(=O)C(=O)N2C[C@@H](C)CC[C@@H]2c2ccc3sc([C@@H]4C[C@@H]5CC(F)(F)C[C@H](C4)N5C)nc3c2)cnc1N [Compound 91, N-(6-amino-5-ethylpyridin-3-yl)-2-((2R,5S)-2-(2-(7,7-difluoro-9-methyl-9-azabicyclo[3.3.1]nonan-3-yl)benzo[d]thiazol-5-yl)-5-methylpiperidin-1-yl)-2-oxoacetamide] | < 5 nM | < 75 nM | A (“A” indicates an IC50 ratio greater than or equal to 30 fold) | – | < 100 nM | – | – | – | – | > 50 nM |
